Earlier results as cited in PMC8405607 (British Journal of Cancer, 2021).

Tests used:
[1] = design: method as in PMID 24309210, PMID 23084521, PMID 28240971; settings: liposarcoma trial; cited from earlier work
[2] = system: p53; design: method as in PMID 21643018; settings: prolonged exposure; cited from earlier work

| SMILES | patients experiencing grade 4 neutropenia [1] [%] | patients experiencing prolonged grade 4 thrombocytopenia [1] [%] | p53 mutations [2] |
| --- | --- | --- | --- |
| CCOc1cc(C(C)(C)C)ccc1C1=N[C@@](C)(c2ccc(Cl)cc2)[C@@](C)(c2ccc(Cl)cc2)N1C(=O)N1CCN(CCCS(C)(=O)=O)CC1 [RG7112] | 30 | 15 | – |
| COc1ccc(C2=N[C@@H](c3ccc(Cl)cc3)[C@@H](c3ccc(Cl)cc3)N2C(=O)N2CCNC(=O)C2)c(OC(C)C)c1 [Nutlin-3a] | – | – | increased incidence of p53 mutations |
